Laboratory results as given in patent US4889861A, “Substituted imidazo[1,5-a]pyridine derivatives and other substituted bicyclic derivatives and their use as aromatase inhibitors” (Ciba-Geigy Corp., priority 1987, dated 1989).

Legend:
aromatase = experiment: in vivo inhibition of aromatase activity: suppression of ovarian estrogen content of PMS-hCG primed female rats; conditions: Rattus norvegicus, po
Experimental: Twenty-one-day-old female rats are injected subcutaneously with 10 IU pregnant mare serum gonadotropin (PMS). Two days later the same rats are injected subcutaneously with 30 IU human chorionic gonadrotropin (hCG). On the day following the hCG treatment the rats are injected subcutaneously with either propylene glycol (0.2 ml:p.o.) or with various doses of the test compound. […] Four hours after the injection of androstenedione the rats are killed and their ovaries removed and trimmed free of adhering tissue and stored in pairs at -40° C. To determine the total estrogen content of the ovaries, 1.5 ml of 0.05M aqueous potassium phosphate buffer, pH 7.4, and 0.2 ml of 0.1N aqueous sodium hydroxide are added to the tissues which are then homogenized. The homogenate is extracted with 15 ml of diethyl ether, 5 ml aliquots are radioimmunoassayed with antiserum having 100% cross reactivity with estrone, estradiol and estriol. The results are expressed as ng estrogen/pair of ovaries.

thromboxane synthetase = target: T1, thromboxane synthetase (Homo sapiens, UniProt P24557); experiment: in vitro inhibition of the thromboxane synthetase enzyme (TxB2/PGF2 ratio); format: biochemical; conditions: 30 min incubation
T1 construct: crude microsomal preparation of thromboxane synthetase from lysed hyman platelets; from tissue; host or cells: lysed human (printed 'hyman') platelets, crude microsomes
T1 sequence (P24557 1-533): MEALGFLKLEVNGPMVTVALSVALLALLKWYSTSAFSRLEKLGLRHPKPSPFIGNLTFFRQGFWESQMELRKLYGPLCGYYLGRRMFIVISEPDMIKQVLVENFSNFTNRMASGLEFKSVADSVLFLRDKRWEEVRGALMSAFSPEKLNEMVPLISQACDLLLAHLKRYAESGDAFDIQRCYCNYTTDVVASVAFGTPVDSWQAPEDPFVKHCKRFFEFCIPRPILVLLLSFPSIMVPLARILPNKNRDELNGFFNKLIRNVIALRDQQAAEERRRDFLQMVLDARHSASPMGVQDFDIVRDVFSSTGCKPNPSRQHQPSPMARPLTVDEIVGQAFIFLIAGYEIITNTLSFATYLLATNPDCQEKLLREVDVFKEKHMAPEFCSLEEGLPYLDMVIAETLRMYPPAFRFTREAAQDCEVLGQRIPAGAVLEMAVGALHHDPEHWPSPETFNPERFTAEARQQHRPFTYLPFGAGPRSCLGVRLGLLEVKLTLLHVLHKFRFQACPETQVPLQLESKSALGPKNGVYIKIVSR
Experimental: Res. Comm. 74, 1432 (1977); the testing procedure is as follows:
^14 C-arachidonic acid is incubated with an enzyme preparation consisting of solubilized and partially purified prostaglandin cyclo-oxygenase from sheep seminal vesicles and a crude microsomal preparation of thromboxane synthetase from lysed hyman platelets. The test compound (dissolved in buffer, or if necessary, in a small amount of ethanol) is added to the incubation medium. At the end of the incubation period (30 minutes), Prostaglandin E2 (PGE2) is reduced to a mixture of Prostaglandin F2 α and F2 β (PGF2 α+β) by addition of sodium borohydride. The radioactive products and excess substrate are extracted into ethyl acetate; the extract is evaporated to dryness; the residue is dissolved in acetone, spotted on thin-layer plates and chromatographed in the solvent system toluene: acetone: glacial acetic acid (100 volumes: 100 volumes: 3 volumes). The radioactive zones are located; those corresponding to Thromboxane B2 (T×B2) and PGF2 α+β are transferred to liquid scintillation vials and counted. The ratio of counts for T×B2 /PGF2 α+β is calculated for each concentration of test compound and IC50 values are determined graphically as the concentration of test compound at which the ratio of T×B2 /PGF2 α+β is reduced to 50% of the control value.

Row | Structure (SMILES) | minimal effective dose (aromatase) [mg/kg] | IC50 (thromboxane synthetase) [nM]
1 | N#Cc1ccc(-c2cccc3cncn23)cc1 [Example 3, 5-(p-Cyanophenyl)imidazo[1,5-a]pyridine] | 0.013 | 
2 | O=C(O)c1ccc(C2CCCc3cncn32)cc1 (stereo not drawn) [Example 9, 5-(p-Carboxyphenyl)-5,6,7,8-tetrahydroimidazo[1,5-a]-pyridine] |  | ~900
3 | CCOC(=O)CC1CCc2cncn2C1c1ccc(C#N)cc1 (stereo not drawn) [Example 33, 5-(4-cyanophenyl)-6-ethoxycarbonylmethyl-5,6,7,8-tetrahydroimidazo[1,5-a]pyridine] | 0.346 | 
